For data set [1], the system named is MDA435 (human breast cancer). The data set is described as follows: In vitro anti-cancer activity, MTS growth inhibition assay, MDA-435. In kind it is cell-based. The note with it: MDA-435 cells, 72 hours. The protocol:
(§1) The in vitro activity of the compounds was determined in the following seven human cancer cell lines. MDA435 (human breast cancer), MIP101 (human colon cancer), HL-60 (human myeloid leukemia), U937 (human leukemia), p388 (murine leukemia), DU-145 (human prostate cancer), MES-SA (human uterine sarcoma) were obtained from ATCC (American Type of Culture Collection).
(§2) The cell lines were maintained in RPMI1640 (GIBCO) supplemented with 10% FCS, 100 units/ml penicillin, 100 ug/ml streptomycin, and 2 mM L-glutamine. The cells were split every third day and diluted to a concentration of 2×10^5 cells/ml one day before experiment. All experiments were performed on exponentially growing cell culture. Cell densities were 2.5×10^4 cells/ml in all experiment.
(§3) A stock solution of Compound (1) and a stock solution of Taxol (positive control) were prepared by dissolving the compound at a concentration of 1 mM in 100% DMSO. Final concentrations were obtained by diluting the stock solution directly into the tissue culture medium. Cells were incubated with varying concentrations of the compounds for 72 hours and the IC50 was determined by MTS (i.e. 3-(4,5,-dimethylthiazol-2-yl)-2,5-diphenyl tetrazolium bromide) assay. IC50 stands for the concentration of compound required to inhibit 50% tumor cell growth.

The test system of data set [2] is MIP101 (human colon cancer). The data set is described as follows: In vitro anti-cancer activity, MTS growth inhibition assay, MIP-101. In kind it is cell-based. The note with it: MIP-101 cells, 72 hours. The protocol: as §1, §2, §3
For data set [3], the system named is HL-60 (human myeloid leukemia). The data set is described as follows: In vitro anti-cancer activity, MTS growth inhibition assay, HL-60. In kind it is cell-based. The note with it: HL-60 cells, 72 hours. The protocol: as §1, §2, §3
For a further data set, the system named is U937 (human leukemia). In words: In vitro anti-cancer activity, MTS growth inhibition assay, U-937. In kind it is cell-based. The note with it: U-937 cells, 72 hours. Here is the method: as §1, §2, §3
For another data set, the system named is p388 (murine leukemia). The data set is described as follows: In vitro anti-cancer activity, MTS growth inhibition assay, p388. In kind it is cell-based. The conditions noted are these: Mus musculus, p388 cells, 72 hours. The protocol:
as §1, §2, §3

Data set [4] concerns DU-145 (human prostate cancer). In words: In vitro anti-cancer activity, MTS growth inhibition assay, DU-145. In kind it is cell-based. The note with it: DU-145 cells, 72 hours, MTS assay (Table 1), read-out: IC50. The protocol: as §1, §2, §3
(§4) The protocol described in Examples 9-10 was used to assay inhibition by Compounds (20) (21) (24) and (28) on the growth of cancer cell lines MES-SA (human uterine sarcoma cell line) and DU-145 (human prostate cancer).

Data set [5] has as its system MES-SA (human uterine sarcoma). In words: In vitro anti-cancer activity, MTS growth inhibition assay, MES-SA. The conditions noted are these: MES-SA cells, 72 hours, MTS assay (Table 1), read-out: IC50. In kind it is cell-based. The protocol: as §1, §2, §3, §4
In data set [6] the test system is HL-60/TX1000 (multi-drug resistant human myeloid leukemia cell line). The data set is described as follows: In vitro activity against multi-drug resistant cell line HL-60/TX1000. The conditions noted are these: HL60/TX1000, HL-60/TX1000 MDR cells (Table 2). In kind it is cell-based. The protocol:
as §2, §3
(§5) In vitro activity was determined in two MDR (Multi Drug Resistant) human cancer cell lines. HL-60/TX1000 was isolated in vitro by subculturing HL-60 in progressively higher concentration of Taxol. HL-60/TX1000 cells over-express mdr-1 mRNA and p-glycoprotein, as determined by western blot and immunofluorescence labeling with antiPGP antibodies. The cell is cross-resistant to Taxol, Vincristine, Adriamycin, Etoposide and Doxorubicin. MES-SA/Dx5 was established in the presence of increasing concentrations of Doxorubicin. […] MES-SA/Dx5 was purchased from ATCC.
(§6) The procedure for culturing the cells and assaying cancer cell growth inhibition were as described in Example 3.

The subject of data set [7] is MES-SA/DX5 (multi-drug resistant human uterine sarcoma cell line). The data set is described as follows: In vitro activity against multi-drug resistant cell line MES-SA/DX5. In kind it is cell-based. The conditions noted are these: MES-SA/Dx5, MES-SA/DX-5 MDR cells (Table 2). The protocol: as §2, §3, §5, §6
The protocol described in Examples 9-10 was used to assay inhibition by Compounds (2)-(8) on the growth of the multidrug resistant cancer cell line MES-SA/DX5, which is a MDR uterine sarcoma cell line.

Data set [8] is described as follows: Body weight of nude mice bearing MDA435 tumor during treatment. In kind it is in vivo, nude mice (CD-1 nu/nu). The conditions noted are these: 25 and 50 mg/kg orally. The protocol: The in vivo anti-cancer efficacy of Compound (1) was assessed in tumor bearing mice using a tumor growth inhibition assay. Human breast tumor (MDA-435) cells were implanted by injection of a tumor cell suspension subcutaneously in the flank of a nude mouse. Treatment of the tumor with an experimental compound began after the tumor had been established (volume was approximately 100 mm^3). The animal then began a multiple injection schedule where the compound was administered orally. Tumors were measured two times a week. During the course of this assay, animals were monitored daily for signs of toxicity including body weight loss.
A dosing solution for compound administration was prepared by dissolving 1 gram of Compound (1) in 10 ml of acetone (HPLC grade), and sonicated for 5 minutes using 550 Sonic Dismembrator. 1.2 equivalents of 1 N HCl aqueous solution were added to the acetone solution which was then sonicated for 5 minutes. All solvent was then evaporated from the solution by using Speed Vac Plus SC 250 DDA over night. The dried powder was used for preparing the dosing solution of Compound (1). 1% Methyl cellulose (MC) vehicle was prepared by dissolving 1.0 gram of Methyl cellulose, 400 cps, U.S.P. (Spectrum Laboratory Products, Cat. # ME136) in 100 mL of H2O. This mixture was then stirred for 12 hours at room temperature to produce a clear 1% MC solution. […]

Data set [9] concerns seven cancer cell lines from different tissue types. The data set is described as follows: Text summary: in vitro activity over the seven cancer cell lines of Table 1. The note with it: range over the seven cell lines of Table 1; read-out: IC50 against seven cancer cell lines. In kind it is cell-based. Here is the method: as §1, §2, §3
Data set [10] relates to MDR cell lines (MES-SA/DX5, HL-60/TX1000). The data set is described as follows: in vitro activity over the two MDR cell lines. The conditions noted are these: MES-SA/DX5, HL-60/TX1000; in words. In kind it is cell-based, human. Here is the method: as §2, §3, §5, §6

The structures appear in SMILES notation.

Turning to `Cc1cc(NC(=O)C(=O)c2cc(Cc3ccc(C#N)cc3)n3ccccc23)sn1` [Compound (1), 2-(3-(4-cyanobenzyl)-indolizin-1-yl)-N-(3-methyl-isothiazol-5-yl)-2-oxo-acetamide], the IC50 in data set [1] amounted to 50 nM; in [2] it was 20 nM; in [3], 10 nM; with U937 (human leukemia) it was 50 nM; in the data set on p388 (murine leukemia), 10 nM; in data set [4], 50 nM. The IC50 is 10 nM in [5], 20 nM in [6], 50 nM in data set [7] and 10 to 50 nM in data set [9]. The body weight change result is listed as “without showing significant body weight loss” in data set [8] (FIG. 2) and “Little or no change in body weight” in data set [8] (FIG. 2, listed as Compound 1). The “anti-cancer activity against MDR cancer cell lines” value in [10] is reported as “high anti-cancer activity”.

The record behind these values is patent US20040214850A1, “1-glyoxylamide indolizines for treating cancer” (Synta Pharmaceuticals Corp., priority 2001, published 2004).
